Key:
human mAChR M4 = molecular target: T1, human mAChR M4 (Homo sapiens, UniProt P08173); experiment: mAChR M4 cell-based functional assay (calcium flux, decrease of EC80 acetylcholine response); conditions: for remaining activity at 30 µM: % ACh maximum at 30 μM, human M4, read-out: Emin; for IC50: M4/Gqi5/CHO-K1 cells, decrease of response to EC80 acetylcholine
T1 construct: expressed in transfected cells; host or cells: CHO-K1 (ATCC), stably co-expressing the chimeric G protein Gqi5
T1 sequence (P08173 1-479): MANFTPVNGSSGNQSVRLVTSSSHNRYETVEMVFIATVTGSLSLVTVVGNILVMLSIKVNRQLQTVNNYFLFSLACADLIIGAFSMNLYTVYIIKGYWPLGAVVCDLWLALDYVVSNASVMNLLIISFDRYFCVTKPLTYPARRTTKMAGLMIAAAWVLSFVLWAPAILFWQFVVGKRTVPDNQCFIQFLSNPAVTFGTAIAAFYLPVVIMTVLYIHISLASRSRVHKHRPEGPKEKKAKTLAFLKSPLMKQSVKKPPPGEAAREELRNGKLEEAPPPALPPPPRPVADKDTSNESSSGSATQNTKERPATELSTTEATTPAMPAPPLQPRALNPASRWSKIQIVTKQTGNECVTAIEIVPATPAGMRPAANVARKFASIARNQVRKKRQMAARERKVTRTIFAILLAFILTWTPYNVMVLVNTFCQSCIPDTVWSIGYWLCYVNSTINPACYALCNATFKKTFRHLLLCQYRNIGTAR
Method: Human or rat M4 cDNA, along with the chimeric G protein Gqi5, were transfected into Chinese hamster ovary (CHO-K1) cells purchased from the American Type Culture Collection using Lipofectamine2000. M4/Gqi5/CHO cells were grown in Ham's F-12 medium containing 10% heat-inactivated fetal bovine serum (FBS), 20 mM HEPES, 500 μg/mL G418 sulfate, and 200 μg/mL Hygromycin B.
For high throughput measurement of agonist-evoked increases in intracellular calcium, CHO-K1 cells stably expressing muscarinic receptors were plated in growth medium lacking G418 and hygromycin at 15,000 cells/20 μL/well in Greiner 384-well black-walled, tissue culture (TC)-treated, clear-bottom plates (VWR). Cells were incubated overnight at 37° C. and 5% CO2. The next day, cells were washed using an ELX 405 (BioTek) with assay buffer: the final volume was then aspirated to 20 μL. Next, 20 μL of a 2.3 μM stock of Fluo-4/acetoxymethyl ester (Invitrogen, Carlsbad, Calif.), prepared as a 2.3 mM stock in DMSO and mixed in a 1:1 ratio with 10% (w/v) Pluronic F-127 and diluted in assay buffer, was added to the wells and the cell plates were incubated for 50 min at 37° C. and 5% CO2. Dye was removed by washing with the ELX 405 and the final volume was aspirated to 20 μL. Compound master plates were formatted in a 10 point concentration-response curve (CRC) format (1:3 dilutions) in 100% DMSO with a starting concentration of 10 or 1 mM using a BRAVO liquid handler (Agilent). Test compound CRCs were then transferred to daughter plates (240 nL) using the Echo acoustic plate reformatter (Labcyte, Sunnyvale, Calif.) and then diluted into assay buffer (40 μL) to a 2× stock using a Thermo Fisher Combi (Thermo Fisher Scientific, Waltham, Mass.).
Calcium flux was measured using the Functional Drug Screening System (FDSS) 6000 or 7000 (Hamamatsu Corporation, Tokyo, Japan) as an increase in the fluorescent static ratio. Compounds were applied to cells (20 μL, 2×) using the automated system of the FDSS at 2 seconds into the protocol and the data were collected at 1 Hz. At 143 s, 10 μL of an EC20 concentration of the muscarinic receptor agonist acetylcholine was added (5×), followed by the addition of 12 μL of an EC80 concentration of acetylcholine at the 268 s time point (5×). Agonist activity was analyzed as a concentration-dependent increase in calcium mobilization upon compound addition. Positive allosteric modulator activity was analyzed as a concentration-dependent increase in the EC20 acetylcholine response. Antagonist activity was analyzed as a concentration-dependent decrease in the EC80 acetylcholine response; for the purposes of the tables herein, an IC50 (inhibitory concentration 50) was calculated as a concentration-dependent decrease of the response elicited by an EC80 concentration of acetylcholine. Concentration-response curves were generated using a four-parameter logistical equation in XLFit curve fitting software (IDBS, Bridgewater, N.J.) for Excel (Microsoft, Redmond, Wash.) or Prism (GraphPad Software, Inc., San Diego, Calif.) or the Dotmatics software platform (Dotmatics, Bishop's Stortford, UK).
Compounds were synthesized as described above. Activity (IC50 and Emin) was determined in the mAChR M4 cell-based functional assay as described above and the data are shown in Table 4. The compound numbers correspond to those used in Examples 1-4 and Tables 1-3.

[1] = test system: haloperidol-induced catalepsy; experiment: haloperidol-induced catalepsy in mice; assay type: in vivo
Source text: Furthermore, haloperidol-induced catalepsy, a model of parkinsonian motor disability, is reduced in M4 knockout mice as compared to wild-type controls. […] The reversal by scopolamine was uncommonly robust and more pronounced than we observe with agents targeting a number of other targets being evaluated for potential antiparkinsonian effects, including metabotropic glutamate (mGlu) receptors mGlu4 or mGlu5, A2A adenosine receptors, and NMDA receptors. […] Taken together with the extensive studies of M4 modulation of basal ganglia and motor function, these studies provide compelling evidence that M4 is the dominant mAChR subtype involved in the antiparkinsonian effects of non-selective mAChR antagonists and provide support for discovery and development of selective M4 antagonists for treatment of neurodegenerative disease such as PD, dystonia, tardive dyskinesia and other movement disorders.

M4 knockout mice = conditions: not the other four mAChR subtypes; cited from earlier work

remaining activity at 30 µM (human mAChR M4) [%]	IC50 (human mAChR M4) [µM]	SMILES	reduction of catalepsy induced by haloperidol ([1]; M4 KO mice)	reversal of catalepsy induced by haloperidol ([1]; WT mice)	locomotor-activating effects (M4 knockout mice)
36.4	10	Cc1nn(C)cc1-c1ccc(OCC2CC3(C2)CN(Cc2ccccc2)C3)nn1 [Compound 24, 2-benzyl-6-(((6-(1,3-dimethyl-1H-pyrazol-4-yl)pyridazin-3-yl)oxy)methyl)-2-azaspiro[3.3]heptane]			
16.5	4.2	Cc1cccnc1CN1CC2(CC(COc3ccc(-c4cn(C)nc4C)nn3)C2)C1 [Compound 25, 6-(((6-(1,3-dimethyl-1H-pyrazol-4-yl)pyridazin-3-yl)oxy)methyl)-2-((3-methylpyridin-2-yl)methyl)-2-azaspiro[3.3]heptane]			
		CN1[C@@H]2C[C@@H](OC(=O)[C@H](CO)c3ccccc3)C[C@H]1[C@@H]1O[C@@H]12 [scopolamine]	ineffective	completely reversed	dramatically reduced

Reference: patent US11325896B2, “Antagonists of the muscarinic acetylcholine receptor M4” (Vanderbilt University, priority 2017, dated 2022)
